Reference: ChEMBL document CHEMBL4346659, “Design, synthesis and evaluation of novel 7H-pyrrolo[2,3-d]pyrimidin-4-amine derivatives as potent, selective and reversible Bruton's tyrosine kinase (BTK) inhibitors for the treatment of rheumatoid arthritis” (Eur J Med Chem, 2019)
Activity calls are given as the source filed them. The rule behind the calls is not given here.

Key:
[1] = tested on: Daudi; assay: Antiproliferative activity against human Daudi cells; assay type: functional, cell-based; details: Homo sapiens, Daudi
[2] = tested on: JeKo-1; assay: Antiproliferative activity against human JeKo1 cells; assay type: functional, cell-based; details: Homo sapiens, JeKo-1
[3] = tested on: Mus musculus; assay: Antiarthritic activity in DBA1/J mouse model of collagen-induced arthritis assessed as reduction in cartilage damage at 12.5 mg/kg, po qd by H and E staining based assay; assay type: functional, organism-based
[4] = tested on: Ramos; assay: Antiproliferative activity against human Ramos cells; assay type: functional, cell-based; details: Homo sapiens, Ramos
[5] = tested on: Mus musculus; assay: Antiarthritic activity in DBA1/J mouse model of collagen-induced arthritis assessed as reduction in bone erosion at 12.5 mg/kg, po qd by H and E staining based assay; assay type: functional, organism-based
[6] = biological target: T1, Tyrosine-protein kinase BTK (Homo sapiens, UniProt Q06187); assay: Inhibition of BTK (unknown origin) at 0.1 uM in the presence of ATP by caliper mobility shift assay relative to control
[7] = biological target: T1, Tyrosine-protein kinase BTK; assay: Inhibition of BTK (unknown origin) in the presence of ATP by caliper mobility shift assay
[8] = biological target: T1, Tyrosine-protein kinase BTK; assay: Inhibition of BTK (unknown origin) at 1 uM in the presence of ATP by caliper mobility shift assay relative to control
[9] = biological target: Tyrosine-protein kinase TXK (Homo sapiens, UniProt P42681); assay: Inhibition of human recombinant TXK using Ulight-Poly GAT[EAY(1:1:1) as substrate measured after 30 mins in the presence of ATP by LANCE method
[10] = biological target: T1, Tyrosine-protein kinase BTK; assay: Inhibition of BTK in human Daudi cells assessed as reduction in PLCgamma-2 phosphorylation at Try1217 residue at 1000 nM after1 hr by Western blot analysis; assay type: cell-based
[11] = biological target: Receptor tyrosine-protein kinase erbB-4 (Homo sapiens, UniProt Q15303); assay: Inhibition of HER4 (unknown origin)
[12] = tested on: Mus musculus; assay: Antiarthritic activity in DBA1/J mouse model of collagen-induced arthritis assessed as reduction in cartilage damage at 30 mg/kg, po qd by H and E staining based assay; assay type: functional, organism-based
[13] = biological target: Tyrosine-protein kinase Blk (Homo sapiens, UniProt P51451); assay: Inhibition of BLK (unknown origin)
[14] = biological target: Cytoplasmic tyrosine-protein kinase BMX (Homo sapiens, UniProt P51813); assay: Inhibition of BMX (unknown origin)
[15] = biological target: T1, Tyrosine-protein kinase BTK; assay: Inhibition of BTK in human Ramos cells assessed as reduction in PLCgamma-2 phosphorylation at Try1217 residue at 1000 nM after1 hr by Western blot analysis; assay type: cell-based
[16] = tested on: Mus musculus; assay: Antiarthritic activity in collagen-induced DBA1/J mouse arthritis model assessed as reduction injoint inflammation at 30 mg/kg or 60 mg/kg, po qd cotreated with ibrutinib at 12.5 mg/kg by micro CT analysis; assay type: functional, organism-based
[17] = tested on: Mus musculus; assay: Antiarthritic activity in DBA1/J mouse model of collagen-induced arthritis assessed as reduction in joint damage at 60 mg/kg, po qd by H and E staining based assay; assay type: functional, organism-based
[18] = Toxicity in DBA1/J mouse model of collagen-induced arthritis assessed as effect on body weight at 30 to 60 mg/kg, po qd; assay type: organism-based; details: in vivo
[19] = biological target: Tyrosine-protein kinase JAK3 (Homo sapiens, UniProt P52333); assay: Inhibition of human recombinant JAK3 using Ulight-CAGAGAIETDKEYYTVKD measured after 60 mins in the presence of ATP by LANCE method
[20] = biological target: Tyrosine-protein kinase Fyn (Homo sapiens, UniProt P06241); assay: Inhibition of human recombinant FYN using biotinyl-beta amyloid beta amyloid beta AYQAEENTYDEYEN as substrate measured after 60 mins in the presence of ATP by HTRF assay
[21] = biological target: T1, Tyrosine-protein kinase BTK; assay: Inhibition of BTK auto phosphorylation at Tyr223 residue in human Ramos cells at 100 nM measured after 1 hr by Western blot analysis; assay type: cell-based
[22] = tested on: Mus musculus; assay: Antiarthritic activity in DBA1/J mouse model of collagen-induced arthritis assessed as reduction in reduction in paw thickness at 30 mg/kg to 60 mg/kg, po qd; assay type: functional, organism-based
[23] = tested on: Mus musculus; assay: Antiarthritic activity in DBA1/J mouse model of collagen-induced arthritis assessed as reduction in bone erosion at 30 mg/kg, po qd by H and E staining based assay; assay type: functional, organism-based
[24] = biological target: Tyrosine-protein kinase Tec (Homo sapiens, UniProt P42680); assay: Inhibition of TEC (unknown origin)
[25] = biological target: Tyrosine-protein kinase Fgr (Homo sapiens, UniProt P09769); assay: Inhibition of human recombinant FGR using Ulight-TK peptide as substrate measured after 60 mins in the presence of ATP by LANCE method
[26] = biological target: Tyrosine-protein kinase ITK/TSK (Homo sapiens, UniProt Q08881); assay: Inhibition of human recombinant ITK using Ulight-TK peptide as substrate measured after 30 mins in the presence of ATP by LANCE method
[27] = biological target: T1, Tyrosine-protein kinase BTK; assay: Inhibition of BTK auto phosphorylation at Tyr223 residue in human Daudi cells at 100 nM measured after 1 hr by Western blot analysis; assay type: cell-based
[28] = biological target: Receptor tyrosine-protein kinase erbB-2 (Homo sapiens, UniProt P04626); assay: Inhibition of human recombinant HER2 using biotinyl-beta amyloid beta amyloid beta AAEEEEYFELVAKKK measured after 10 mins in the presence of ATP by HTRF assay
[29] = biological target: Tyrosine-protein kinase Lck (Homo sapiens, UniProt P06239); assay: Inhibition of human recombinant LCK using Ulight-Poly GAT[EAY(1:1:1) as substrate measured after 10 mins in the presence of ATP by LANCE method
[30] = tested on: Mus musculus; assay: Antiarthritic activity in DBA1/J mouse model of collagen-induced arthritis assessed as reduction in clinical arthritic score at 30 mg/kg to 60 mg/kg, po qd; assay type: functional, organism-based
[31] = biological target: Proto-oncogene tyrosine-protein kinase Src (Homo sapiens, UniProt P12931); assay: Inhibition of human recombinant SRC using Ulight-Poly GAT[EAY(1:1:1) as substrate measured after 10 mins in the presence of ATP by LANCE method
[32] = biological target: Tyrosine-protein kinase Lyn (Homo sapiens, UniProt P07948); assay: Inhibition of human recombinant LYN using biotinyl-beta amyloid beta amyloid beta AKVEKIGEGTYGVVYK as substrate measured after 120 mins in the presence of ATP by HTRF assay
[33] = biological target: T1, Tyrosine-protein kinase BTK; assay: Inhibition of BTK in human JeKo1 cells assessed as reduction in PLCgamma-2 phosphorylation at Try1217 residue at 1000 nM after1 hr by Western blot analysis; assay type: cell-based
[34] = tested on: Mus musculus; assay: Antiarthritic activity in DBA1/J mouse model of collagen-induced arthritis assessed as reduction in bone erosion at 60 mg/kg, po qd by micro-CT analysis; assay type: functional, organism-based
[35] = biological target: Tyrosine-protein kinase HCK (Homo sapiens, UniProt P08631); assay: Inhibition of HCK (unknown origin)
[36] = tested on: Mus musculus; assay: Antiarthritic activity in DBA1/J mouse model of collagen-induced arthritis assessed as reduction in cellular infiltration at 60 mg/kg, po qd by Safranin O-staining based assay; assay type: functional, organism-based
[37] = biological target: Epidermal growth factor receptor (Homo sapiens, UniProt P00533); assay: Inhibition of human recombinant EGFR using Ulight-CAGAGAIETDKEYYTVKD measured after 15 mins in the presence of ATP by LANCE method
[38] = biological target: Tyrosine-protein kinase Yes (Homo sapiens, UniProt P07947); assay: Inhibition of human recombinant YES using biotinyl-beta amyloid beta amyloid beta AYQAEENTYDEYEN as substrate measured after 30 mins in the presence of ATP by HTRF assay
[39] = biological target: T1, Tyrosine-protein kinase BTK; assay: Inhibition of BTK auto phosphorylation at Tyr223 residue in human JeKo1 cells at 100 nM measured after 1 hr by Western blot analysis; assay type: cell-based

T1 sequence (Q06187 whole entry): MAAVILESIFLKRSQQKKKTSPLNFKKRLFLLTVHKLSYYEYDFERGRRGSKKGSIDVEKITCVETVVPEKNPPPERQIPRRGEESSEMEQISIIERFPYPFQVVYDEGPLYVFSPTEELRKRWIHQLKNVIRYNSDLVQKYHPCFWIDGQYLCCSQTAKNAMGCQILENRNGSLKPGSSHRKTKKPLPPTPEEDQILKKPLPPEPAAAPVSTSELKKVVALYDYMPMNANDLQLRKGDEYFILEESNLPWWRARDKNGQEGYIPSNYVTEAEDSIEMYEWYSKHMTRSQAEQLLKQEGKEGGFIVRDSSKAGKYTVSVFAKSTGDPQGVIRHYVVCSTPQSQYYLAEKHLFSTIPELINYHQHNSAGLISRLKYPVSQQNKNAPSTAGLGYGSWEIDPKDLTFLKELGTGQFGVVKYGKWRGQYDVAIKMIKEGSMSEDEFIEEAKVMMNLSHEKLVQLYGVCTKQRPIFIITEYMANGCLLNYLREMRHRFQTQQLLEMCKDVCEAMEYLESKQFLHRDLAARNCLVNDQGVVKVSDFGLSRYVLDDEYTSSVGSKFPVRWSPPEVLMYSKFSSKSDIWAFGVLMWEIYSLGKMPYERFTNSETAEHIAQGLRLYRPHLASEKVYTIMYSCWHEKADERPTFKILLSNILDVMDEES
Chain of Tyrosine-protein kinase Tec (P42680 whole entry): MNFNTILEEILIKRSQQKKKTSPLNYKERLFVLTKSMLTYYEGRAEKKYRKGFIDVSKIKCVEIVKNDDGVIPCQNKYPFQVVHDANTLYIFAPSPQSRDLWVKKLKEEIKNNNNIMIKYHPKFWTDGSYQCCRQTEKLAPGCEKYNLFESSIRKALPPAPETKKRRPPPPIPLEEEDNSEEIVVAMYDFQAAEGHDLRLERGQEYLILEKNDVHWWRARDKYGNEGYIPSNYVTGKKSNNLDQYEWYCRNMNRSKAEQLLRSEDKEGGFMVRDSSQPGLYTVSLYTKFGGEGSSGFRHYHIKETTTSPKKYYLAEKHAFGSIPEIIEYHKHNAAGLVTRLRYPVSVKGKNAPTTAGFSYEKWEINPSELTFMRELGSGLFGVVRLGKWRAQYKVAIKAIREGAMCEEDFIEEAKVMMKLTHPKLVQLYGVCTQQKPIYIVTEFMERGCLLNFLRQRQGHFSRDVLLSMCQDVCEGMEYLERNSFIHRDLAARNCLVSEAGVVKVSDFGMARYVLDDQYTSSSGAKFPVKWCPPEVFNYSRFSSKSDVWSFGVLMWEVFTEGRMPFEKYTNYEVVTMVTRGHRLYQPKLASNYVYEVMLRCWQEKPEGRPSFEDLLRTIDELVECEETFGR
Chain of Tyrosine-protein kinase TXK (P42681 whole entry): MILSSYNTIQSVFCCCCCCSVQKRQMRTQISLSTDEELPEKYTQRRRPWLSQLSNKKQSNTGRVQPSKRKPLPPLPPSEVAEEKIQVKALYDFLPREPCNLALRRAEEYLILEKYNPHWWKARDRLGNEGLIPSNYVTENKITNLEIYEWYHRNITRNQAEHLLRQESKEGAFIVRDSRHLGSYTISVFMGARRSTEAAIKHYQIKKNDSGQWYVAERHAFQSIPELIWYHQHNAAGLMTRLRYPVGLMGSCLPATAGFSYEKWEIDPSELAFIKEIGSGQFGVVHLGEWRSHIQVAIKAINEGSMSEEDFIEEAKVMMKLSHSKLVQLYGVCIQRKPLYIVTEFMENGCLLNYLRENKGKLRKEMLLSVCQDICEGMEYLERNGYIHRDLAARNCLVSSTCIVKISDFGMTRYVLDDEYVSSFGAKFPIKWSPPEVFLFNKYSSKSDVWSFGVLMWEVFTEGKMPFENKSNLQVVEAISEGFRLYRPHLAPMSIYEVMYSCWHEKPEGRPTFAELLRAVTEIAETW
Chain of Cytoplasmic tyrosine-protein kinase BMX (P51813 whole entry): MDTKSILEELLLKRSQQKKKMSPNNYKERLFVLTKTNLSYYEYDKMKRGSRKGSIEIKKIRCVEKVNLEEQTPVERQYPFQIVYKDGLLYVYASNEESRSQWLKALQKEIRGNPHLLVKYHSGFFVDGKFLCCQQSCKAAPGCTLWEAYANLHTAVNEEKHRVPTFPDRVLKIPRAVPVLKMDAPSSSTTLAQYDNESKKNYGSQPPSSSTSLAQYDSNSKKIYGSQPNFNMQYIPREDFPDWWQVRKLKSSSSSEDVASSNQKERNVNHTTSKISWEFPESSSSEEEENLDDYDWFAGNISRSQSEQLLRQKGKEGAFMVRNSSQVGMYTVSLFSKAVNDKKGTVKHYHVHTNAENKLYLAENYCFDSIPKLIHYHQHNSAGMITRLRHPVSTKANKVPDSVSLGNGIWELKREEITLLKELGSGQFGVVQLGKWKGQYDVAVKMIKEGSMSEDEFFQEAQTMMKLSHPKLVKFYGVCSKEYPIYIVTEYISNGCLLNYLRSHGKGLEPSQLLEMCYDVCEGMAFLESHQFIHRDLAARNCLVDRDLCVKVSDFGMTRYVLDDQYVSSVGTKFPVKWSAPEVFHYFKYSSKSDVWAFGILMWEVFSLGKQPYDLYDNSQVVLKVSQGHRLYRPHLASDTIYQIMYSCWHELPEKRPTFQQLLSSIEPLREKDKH
Chain of Tyrosine-protein kinase Fyn (P06241 whole entry): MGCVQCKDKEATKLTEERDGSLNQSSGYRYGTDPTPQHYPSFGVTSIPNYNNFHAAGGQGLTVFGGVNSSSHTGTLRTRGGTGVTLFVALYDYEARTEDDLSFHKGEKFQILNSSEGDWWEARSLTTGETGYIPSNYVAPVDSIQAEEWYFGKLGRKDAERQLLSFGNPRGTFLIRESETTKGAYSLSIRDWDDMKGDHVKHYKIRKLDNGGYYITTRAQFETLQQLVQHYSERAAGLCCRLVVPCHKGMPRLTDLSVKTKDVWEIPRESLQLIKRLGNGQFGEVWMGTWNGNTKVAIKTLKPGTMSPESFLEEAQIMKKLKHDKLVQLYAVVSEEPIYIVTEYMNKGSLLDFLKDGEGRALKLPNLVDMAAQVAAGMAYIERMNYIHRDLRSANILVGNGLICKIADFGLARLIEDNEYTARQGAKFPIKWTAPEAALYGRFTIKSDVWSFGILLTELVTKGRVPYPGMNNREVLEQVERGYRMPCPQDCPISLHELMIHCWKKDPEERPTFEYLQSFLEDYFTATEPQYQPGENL
Chain of Tyrosine-protein kinase Lck (P06239 whole entry): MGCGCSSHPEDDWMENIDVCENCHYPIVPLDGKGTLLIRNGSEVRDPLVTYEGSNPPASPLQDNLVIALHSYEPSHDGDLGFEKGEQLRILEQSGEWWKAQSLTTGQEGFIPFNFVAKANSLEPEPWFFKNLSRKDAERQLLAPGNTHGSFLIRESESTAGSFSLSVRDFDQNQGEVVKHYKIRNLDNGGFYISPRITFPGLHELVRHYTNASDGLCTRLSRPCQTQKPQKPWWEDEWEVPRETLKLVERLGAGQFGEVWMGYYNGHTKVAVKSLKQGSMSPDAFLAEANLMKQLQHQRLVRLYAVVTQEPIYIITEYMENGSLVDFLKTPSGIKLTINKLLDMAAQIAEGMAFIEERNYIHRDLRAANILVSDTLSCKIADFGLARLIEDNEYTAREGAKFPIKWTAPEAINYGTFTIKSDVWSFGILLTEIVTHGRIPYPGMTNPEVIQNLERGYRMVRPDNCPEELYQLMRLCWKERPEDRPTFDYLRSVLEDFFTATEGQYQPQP
Chain of Tyrosine-protein kinase Fgr (P09769 whole entry): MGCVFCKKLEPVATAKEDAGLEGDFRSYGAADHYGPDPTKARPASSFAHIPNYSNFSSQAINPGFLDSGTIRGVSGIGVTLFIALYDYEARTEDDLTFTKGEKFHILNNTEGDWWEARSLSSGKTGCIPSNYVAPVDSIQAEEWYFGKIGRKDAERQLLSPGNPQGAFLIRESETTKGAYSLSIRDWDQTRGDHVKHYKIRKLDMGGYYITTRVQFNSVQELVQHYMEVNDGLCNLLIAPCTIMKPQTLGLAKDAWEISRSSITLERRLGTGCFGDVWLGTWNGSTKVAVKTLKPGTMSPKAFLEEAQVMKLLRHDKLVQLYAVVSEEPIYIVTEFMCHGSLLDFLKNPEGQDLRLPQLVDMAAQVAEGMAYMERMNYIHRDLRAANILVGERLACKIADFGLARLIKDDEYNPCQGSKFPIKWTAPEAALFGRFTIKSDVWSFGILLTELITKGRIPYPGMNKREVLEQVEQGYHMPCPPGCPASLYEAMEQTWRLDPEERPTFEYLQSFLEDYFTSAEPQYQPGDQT
Chain of Tyrosine-protein kinase Blk (P51451 whole entry): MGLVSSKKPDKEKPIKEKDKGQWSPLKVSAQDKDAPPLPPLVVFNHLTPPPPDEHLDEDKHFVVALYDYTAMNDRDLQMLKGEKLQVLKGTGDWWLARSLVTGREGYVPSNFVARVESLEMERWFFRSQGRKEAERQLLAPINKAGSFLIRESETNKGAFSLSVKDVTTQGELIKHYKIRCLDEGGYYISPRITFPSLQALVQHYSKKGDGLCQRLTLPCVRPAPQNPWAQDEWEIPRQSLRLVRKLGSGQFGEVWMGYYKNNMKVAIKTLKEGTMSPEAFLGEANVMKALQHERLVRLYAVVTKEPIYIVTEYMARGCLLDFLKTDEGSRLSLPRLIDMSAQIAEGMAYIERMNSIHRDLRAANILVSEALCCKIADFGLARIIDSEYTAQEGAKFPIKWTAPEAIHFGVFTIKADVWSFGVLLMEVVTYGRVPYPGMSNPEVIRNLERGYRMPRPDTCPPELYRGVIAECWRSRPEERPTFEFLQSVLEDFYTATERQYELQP

With `C=CC(=O)N1CCC[C@@H](n2nc(-c3ccc(Oc4ccccc4)cc3)c3c(N)ncnc32)C1` [IBRUTINIB] the IC50 [1] was 3920 nM, the IC50 [2] was 1050 nM and the Activity [3] was “inactive”. For the same molecule, the IC50 [4] was 5010 nM and the Activity [5] was “Active”.

Work on `Nc1ncnc2c1c(-c1ccc3c(c1)OCO3)cn2C[C@H]1CCCN1C[C@@H]1CO1` yielded an IC50 [1] of 8970 nM, an IC50 [2] of 4830 nM and an inhibition [6] of 81.6%. The IC50 [7] was 8.9 nM, the IC50 [4] was 18000 nM and the inhibition [8] was 94.5%.

For `Nc1ncnc2c1c(-c1ccc3c(c1)OCO3)cn2[C@@H]1CCN(C[C@H]2CO2)C1`, the IC50 [1] was 53800 nM, the IC50 [2] was 32500 nM and the inhibition [6] was 15.2%. It also gave an IC50 [7] greater than 500 nM, an IC50 [4] greater than 50000 nM and an inhibition [8] of 42%.

`Nc1ncnc2c1c(-c1ccc3c(c1)OCO3)cn2[C@H]1CCN(C2COC2)C1` showed an IC50 [1] greater than 50000 nM, an IC50 [2] greater than 50000 nM and an inhibition [6] of 19.7%. The IC50 [7] was greater than 500 nM, the IC50 [4] was greater than 50000 nM and the inhibition [8] was 52%.

Work on `Nc1ncnc2c1c(-c1ccc3c(c1)OCO3)cn2C[C@@H]1CCN(C[C@@H]2CO2)C1` yielded an IC50 [1] of 15900 nM, an IC50 [2] of 10300 nM and an inhibition [6] of 48.3%. It also gave an IC50 [7] of 123 nM, an IC50 [4] of 13300 nM and an inhibition [8] of 86.3%.

For `Nc1ncnc2c1c(-c1ccc(Oc3ccccc3)cc1)cn2C[C@H]1CCCN1C[C@@H]1CO1`, the IC50 [1] was 7040 nM, the IC50 [9] was 358 nM and the inhibition [10] was “Active”. The IC50 [11] was 385 nM, the Activity [12] was “Active” and the IC50 [13] was 10 nM. The IC50 [2] was 11100 nM, the IC50 [14] was 83 nM and the inhibition [15] was “Active”. The Activity [16] was “Dose-dependent effect”, the Activity [17] was “Active” and the Activity [18] was “Non-Toxic”. For the same molecule, the IC50 [19] was greater than 1000 nM, the IC50 [20] was 232 nM and the inhibition [21] was “Active”. For the same molecule, the Activity [22] was “Dose-dependent effect”, the Activity [23] was “Active” and the IC50 [24] was 44 nM. For the same molecule, the IC50 [25] was 28 nM, the inhibition [6] was 96.6% and the IC50 [7] was 3 nM. For the same molecule, the IC50 [26] was greater than 1000 nM, the inhibition [27] was “Active” and the IC50 [28] was greater than 1000 nM. For the same molecule, the IC50 [29] was 31 nM, the Activity [30] was “Dose-dependent effect” and the IC50 [31] was 123 nM. For the same molecule, the IC50 [32] was 10 nM, the inhibition [33] was “Active” and the IC50 [4] was 8520 nM. The Activity [34] was “Active”, the IC50 [35] was 33 nM and the Activity [36] was “Active”. For the same molecule, the IC50 [37] was greater than 1000 nM, the IC50 [38] was 86 nM and the inhibition [8] was 99.8%. For the same molecule, the inhibition [39] was “Active”.

`Nc1ncnc2c1c(-c1ccc3c(c1)OCO3)cn2[C@H]1CCN(C[C@@H]2CO2)C1` gave an IC50 [1] of 2390 nM, an IC50 [2] of 3410 nM and an inhibition [6] of 87.6%. The IC50 [7] was 36.6 nM, the IC50 [4] was 12500 nM and the inhibition [8] was 93.5%.
